Test results taken from US20230303631A1, “METHOD FOR INDUCING IMMUNITY TO SARS-CoV-2” (RIKEN, priority 2020, published 2023).
Where no end group is shown, it is not given here.

Legend:
[1] = system: CD8 single-positive T cells; conditions: PBMCs of healthy donors HD1 to HD5, peptide 10 μM, 21 days with IL-2, then 16 hours with peptide, brefeldin A and monensin; FIG. 1
[2] = system: CD8 single-positive T cells; assay: Intracellular cytokine staining (IFN-γ, TNF-α) after restimulation with individual 15mer peptides; assay type: cell-based, human; conditions: for INF-γ production by CD8 single-positive T cells / TNF-α production by CD8 single-positive T cells: PBMCs of 4 healthy volunteers with HLA-A2402, cultured with 15mer mixture (each 10 μg/ml) and IL-2, restimulated with individual 15mer for 16 hours, FIG. 3
Protocol: Culture was carried out for 21 days in presence of IL-2 and a peptide and stimulation with a peptide was carried out in the presence of brefeldin and monensin in the same manner as in Example 1, and then, INF-γ production was examined. More specifically, to PBMCs of 4 healthy volunteers (HV) with HLA-A2402, a mixture of 15mer peptides was added such that the concentration of each peptide became 10 μg/ml. The PBMCs were cultured in the presence of IL-2. As a result, T cells having a binding affinity to a peptide in contact with them survive. Autogenous PBMCs were pulsed with a mixture of 15mer peptides every week, irradiated with 40 Gy and added to the above culture as a feeder. On Day 14 and 21, the mixture of 15mer peptides was further added. Thereafter, the culture obtained was pulsed with individual 15mer peptides and cultured for 16 hours in the presence of brefeldin and monensin to induce INF-γ production. Intracellular cytokine staining (anti-IFN-g-APC, anti-TNF-α-PE) were performed and peptide-specific cytokine producing CD8T cells were analyzed.

Sequence | induction of IFN-γ production in CD8 single-positive T cells (cytotoxic T cells) [1] | antigen-specific cytotoxic action of CTLs on peptide-pulsed A24-C1R cells (A24-C1R cells) | INF-γ production by CD8 single-positive T cells [2] | TNF-α production by CD8 single-positive T cells [2] | ratio of INF-γ-positive, TNF-α-positive CD8T cells (stimulation of T cells) ([2]; comparison among the 15mer peptides, FIG. 4)
QYIKWPWYI [pep #4, QYIKWPWYI] | strong induction of IFN-γ production | exhibited antigen-specific cytotoxic action |  |  | 
WPWYIWLGFIAGLIA [15mer-4] |  |  | increased | increased | 
GKYEQYIKWPWYIWL [15mer-2] |  |  | increased | increased | 
QYIKWPWYIWLGFIA [15mer-3] |  |  | increased | increased | stimulated T cells most satisfactorily
